According to patent publication US20240018161A1, “MODULATORS OF CYSTIC FIBROSIS TRANSMEMBRANE CONDUCTANCE REGULATOR” (VERTEX PHARMACEUTICALS INCORPORATED, priority 2020, published 2024):
pEC50: −log10 of the molar value. Read-outs that look alike come from different tables or passages of the source.

Target: CFTR-mediated chloride transport in human intestinal epithelial enteroid cells (Homo sapiens, UniProt P13569)
Experiment: Membrane potential dye, Enteroid Assay A
Type: cell-based
Settings: for pEC50: read-out: Ent. A EC50
Procedure, shortened: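 Membrane potential dye (20 μM methyl oxonol, with 30 μM CaCCinh-A01 and 30 μM Chicago Sky Blue) loaded 25 min at room temperature into ROCK-inhibitor-seeded human enteroid cells. Chloride-free stimulation buffer triggered transport, followed by 15 min fluorescence. % Activity relative to 3 μM/3 μM/300 nM triple-combination control.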

[1] = percentage of chloride transport of triple combination control (3 μM N-[(6-amino-2-pyridyl)sulfonyl]-6-(3-fluoro-5-isobutoxy-phenyl)-2-[(4S)-2,2,4-trimethylpyrrolidin-1-yl]pyridine-3-carboxamide based)
[2] = enteroid cells incubated with test compound 18-24 hours, acute 10 μM forskolin and 300 nM N-[2,4-bis(1,1-dimethylethyl)-5-hydroxyphenyl]-1,4-dihydro-4-oxoquinoline-3-carboxamide

Sequence of CFTR-mediated chloride transport in human intestinal epithelial enteroid cells (P13569 with tags, fused parts or gaps DEL508-508): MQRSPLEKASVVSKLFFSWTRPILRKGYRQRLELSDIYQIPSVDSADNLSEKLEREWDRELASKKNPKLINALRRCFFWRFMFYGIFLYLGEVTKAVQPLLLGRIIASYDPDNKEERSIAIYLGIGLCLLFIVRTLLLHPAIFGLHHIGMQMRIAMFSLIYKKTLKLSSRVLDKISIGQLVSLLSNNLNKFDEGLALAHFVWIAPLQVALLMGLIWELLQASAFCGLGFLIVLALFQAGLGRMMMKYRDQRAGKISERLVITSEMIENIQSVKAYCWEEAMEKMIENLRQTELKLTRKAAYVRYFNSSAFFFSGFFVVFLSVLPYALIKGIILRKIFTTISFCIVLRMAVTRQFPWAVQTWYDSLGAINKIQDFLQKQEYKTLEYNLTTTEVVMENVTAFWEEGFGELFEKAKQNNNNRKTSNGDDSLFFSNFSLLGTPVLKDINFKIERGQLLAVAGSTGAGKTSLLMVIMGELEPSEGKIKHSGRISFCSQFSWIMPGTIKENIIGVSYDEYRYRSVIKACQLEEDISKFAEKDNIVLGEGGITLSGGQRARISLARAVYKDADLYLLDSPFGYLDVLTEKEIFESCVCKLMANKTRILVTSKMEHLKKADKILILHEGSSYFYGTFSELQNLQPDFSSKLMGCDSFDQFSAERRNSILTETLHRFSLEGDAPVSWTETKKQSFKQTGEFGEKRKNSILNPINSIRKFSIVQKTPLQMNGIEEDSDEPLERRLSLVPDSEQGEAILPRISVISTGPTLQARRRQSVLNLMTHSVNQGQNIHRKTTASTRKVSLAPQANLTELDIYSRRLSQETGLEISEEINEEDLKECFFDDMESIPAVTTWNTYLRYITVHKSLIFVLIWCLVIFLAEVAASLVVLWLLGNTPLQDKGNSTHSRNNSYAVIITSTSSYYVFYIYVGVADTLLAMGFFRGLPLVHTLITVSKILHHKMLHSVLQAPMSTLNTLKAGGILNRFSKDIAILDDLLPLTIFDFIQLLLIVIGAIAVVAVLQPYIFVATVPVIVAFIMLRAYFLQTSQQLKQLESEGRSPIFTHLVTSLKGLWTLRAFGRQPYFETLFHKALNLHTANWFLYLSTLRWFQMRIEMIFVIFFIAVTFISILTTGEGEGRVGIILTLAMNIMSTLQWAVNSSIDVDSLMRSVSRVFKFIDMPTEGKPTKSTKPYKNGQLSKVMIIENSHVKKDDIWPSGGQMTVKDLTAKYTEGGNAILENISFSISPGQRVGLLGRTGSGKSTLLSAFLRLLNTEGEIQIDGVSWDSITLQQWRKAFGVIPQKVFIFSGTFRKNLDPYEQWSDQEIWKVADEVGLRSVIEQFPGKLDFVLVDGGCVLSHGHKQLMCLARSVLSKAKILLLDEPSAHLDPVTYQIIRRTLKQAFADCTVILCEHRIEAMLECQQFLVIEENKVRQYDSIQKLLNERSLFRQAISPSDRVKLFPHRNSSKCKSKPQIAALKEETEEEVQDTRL

SMILES	Ent. A Max Activity (%) (Enteroid Assay A)	pEC50 (Enteroid Assay A)	Ent. A Max Activity (%) [1]	pEC50 [2]
Cc1cccc(C)c1-c1cc2nc(n1)NS(=O)(=O)c1cccc(c1)C(=O)N1CCN(C3CC(C)(C)C3)C[C@H](C1)O2 [Compound 24]	++ (++ is 30-60%)	> 6.00	–	–
Cc1cccc(C)c1-c1cc2nc(n1)NS(=O)(=O)c1cccc(c1)C(=O)N1CCC[C@@H](C1)O2 [Compound 335]	–	–	+ (+ is <300%)	–
Cc1cccc(C)c1-c1cc2nc(n1)NS(=O)(=O)c1cc(n(C)c1)C(=O)N1Cc3ccccc3C(C1)O2 (stereo not drawn) [Compound 207, 11-(2,6-Dimethylphenyl)-4-methyl-14-oxa-7λ^6-thia-1,4,8,10,24-pentaazapentacyclo[13.7.1.13,6.19,13.016,21]pentacosa-3(25),5,9(24),10,12,16(21),17,19-octaene-2,7,7-trione]	–	–	++ (++ is 30-60%)	> 6.00
Cc1cccc(C)c1-c1cc2nc(n1)NS(=O)(=O)c1cccc(c1)C(=O)N1CCN(C(=O)NC34CC5CC(CC(C5)C3)C4)C[C@@H]1CO2 [Compound 290]	–	–	++ (++ is 30-60%)	5.52 to 6.00
Cc1cccc(C)c1-c1cc2nc(n1)NS(=O)(=O)c1cccc(c1)C(=O)N1CCN(CC3CCCCC3)CC(C1)O2 (stereo not drawn) [Compound 53]	–	–	++ (++ is 30-60%)	> 6.00
Cc1cccc(C)c1-c1cc2nc(n1)NS(=O)(=O)c1cc(n(C)n1)C(=O)N1Cc3ccccc3[C@H](C1)O2 [Compound 340]	–	–	+ (+ is <300%)	4.52 to 5.52
Cc1cccc(C)c1-c1cc2nc(n1)NS(=O)(=O)c1cccc(c1)C(=O)N1CCN(Cc3cnn(C(C)C)c3)C[C@@H]1CO2 [Compound 264]	–	–	++ (++ is 30-60%)	–
Cc1cccc(C)c1-c1cc2nc(n1)NS(=O)(=O)c1cccc(c1)C(=O)N1CCN(CC3(C)COC3)C[C@@H]1CO2 [Compound 261]	–	–	+ (+ is <300%)	–
Cc1cccc(C)c1-c1cc2nc(n1)NS(=O)(=O)c1cccc(c1)C(=O)N1C[C@@H](CNC[C@@H]1CCC(C)C)O2 [Compound 130, (16R,20S)-12-(2,6-Dimethylphenyl)-20-(3-methylbutyl)-15-oxa-8λ^6-thia-1,9,11,18,22-pentaazatetracyclo[14.4.1.13,7.110,14]tricosa-3(23),4,6,10(22),11,13-hexaene-2,8,8-trione]	+++ (+++ is >600%)	> 6.00	–	–
Cc1cccc(C)c1-c1cc2nc(n1)NS(=O)(=O)c1cccc(c1)C(=O)N1CCc3ccccc3C(C1)O2 (stereo not drawn) [Compound 220, 12-(2,6-Dimethylphenyl)-15-oxa-8λ^6-thia-1,9,11,26-tetraazapentacyclo[14.8.1.13,7.110,14.017,22]heptacosa-3(27),4,6,10(26),11,13,17,19,21-nonaene-2,8,8-trione]	–	–	+++ (+++ is >60%)	> 6.00
Cc1cccc(C)c1-c1cc2nc(n1)NS(=O)(=O)c1cccc(c1)C(=O)N1CCN([C@H]3CC[C@@H](F)CC3)C[C@H](C1)O2 (single isomer, unassigned) [Compound 38]	+++ (+++ is >600%)	> 6.00	–	–
Cc1cccc(C)c1-c1cc2nc(n1)NS(=O)(=O)c1cccc(c1)C(=O)N1CCN(C(=O)OCc3ccccc3)C[C@H](O2)[C@H]1C (single isomer, unassigned) [Compound 112]	+++ (+++ is >600%)	> 6.00	–	–
Cc1cccc(C)c1-c1cc2nc(n1)NS(=O)(=O)c1cccc(c1)C(=O)N1C[C@@H](CN(C3CCC(F)(F)CC3)C[C@H]1C(C)C)O2 [Compound 126, (16R,20R)-18-(4,4-Difluorocyclohexyl)-12-(2,6-dimethylphenyl)-20-(propan-2-yl)-15-oxa-8λ^6-thia-1,9,11,18,22-pentaazatetracyclo[14.4.1.13,7.110,14]tricosa-3(23),4,6,10(22),11,13-hexaene-2,8,8-trione]	+++ (+++ is >600%)	> 6.00	–	–
Cc1cccc(C)c1-c1cc2nc(n1)NS(=O)(=O)c1cccc(c1)C(=O)N1CCNC[C@@H]1CO2 [Compound 161, (8R)-13-(2,6-Dimethylphenyl)-10-oxa-17λ^6-thia-3,6,14,16,23-pentaazatetracyclo[16.3.1.111,15.03,8]tricosa-1(21),11,13,15(23),18(22),19-hexaene-2,17,17-trione]	–	–	++ (++ is 30-60%)	4.52 to 5.52
Cc1cccc(C)c1-c1cc2nc(n1)NS(=O)(=O)c1cccc(c1)C(=O)N1CC(NC(=O)OC(C)(C)C)CC(C1)O2 (stereo not drawn) [Compound 320]	–	–	++ (++ is 30-60%)	5.52 to 6.00
Cc1cccc(C)c1-c1cc2nc(n1)NS(=O)(=O)c1cccc(c1)C(=O)N1CCN(CCC3(C(F)(F)F)CC3)C[C@@H]1CO2 [Compound 163, (8R)-13-(2,6-Dimethylphenyl)-6-{2-[1-(trifluoromethyl)cyclopropyl]ethyl}-10-oxa-17λ^6-thia-3,6,14,16,23-pentaazatetracyclo[16.3.1.111,15.03,8]tricosa-1(22),11(23),12,14,18,20-hexaene-2,17,17-trione]	–	–	+++ (+++ is >60%)	> 6.00

SMILES	Ent. A Max Activity (%) (Enteroid Assay A)	pEC50 (Enteroid Assay A)	Ent. A Max Activity (%) [1]	pEC50 [2]
Cc1cccc(C)c1-c1cc2nc(n1)NS(=O)(=O)N1CCc3ccc(cc31)C(=O)N1Cc3ccccc3[C@@H](O2)[C@H]1CC(C)C [Compound 249]	++ (++ is 30-60%)	> 6.00	–	–
CCCCN1CCN2C[C@@H](C1)Oc1cc(-c3c(C)cccc3C)nc(n1)NS(=O)(=O)c1cccc(c1)C2=O [Compound 32]	+++ (+++ is >600%)	> 6.00	–	–
Cc1cccc(C)c1-c1cc2nc(n1)NS(=O)(=O)c1cccc(c1)CCC(=O)N1CCC(CC1)O2 [Compound 352]	–	–	+ (+ is <300%)	–
Cc1cccc(C)c1-c1cc2nc(n1)NS(=O)(=O)c1cccc(c1)C(=O)N1CCN(C3CCC3)C[C@H](C1)O2 [Compound 27]	++ (++ is 30-60%)	> 6.00	–	–
Cc1cccc(C)c1-c1cc2nc(n1)NS(=O)(=O)c1cccc(c1)C(=O)N1C[C@@H](CN(C3CC4(CCCC4)C3)C[C@H]1C(C)C)O2 [Compound 127, (16R,20R)-12-(2,6-dimethylphenyl)-20-(propan-2-yl)-18-{spiro[3.4]octan-2-yl}-15-oxa-8λ^6-thia-1,9,11,18,22-pentaazatetracyclo[14.4.1.13,7.110,14]tricosa-3(23),4,6,10(22),11,13-hexaene-2,8,8-trione]	++ (++ is 30-60%)	> 6.00	–	–
Cc1cccc(C)c1-c1cc2nc(n1)NS(=O)(=O)c1cccc(c1)C(=O)N1C[C@@H](CNC[C@H]1C(C)C)O2 [Compound 123, (16R,20R)-12-(2,6-Dimethylphenyl)-20-(propan-2-yl)-15-oxa-8λ^6-thia-1,9,11,18,22-pentaazatetracyclo[14.4.1.13,7.110,14]tricosa-3(23),4,6,10(22),11,13-hexaene-2,8,8-trione]	++ (++ is 30-60%)	5.52 to 6.00	–	–
Cc1cccc(C)c1-c1cc2nc(n1)NS(=O)(=O)c1cccc(c1)C(=O)N1CC(C)(C)CC(O2)C1CC(C)C (single isomer, unassigned) [Compound 232, 18-(2,6-Dimethylphenyl)-5,5-dimethyl-22-(2-methylpropyl)-2-oxa-14λ^6-thia-7,15,17,20-tetraazatetracyclo[14.3.1.13,7.19,13]docosa-1(20),9(21),10,12,16,18-hexaene-8,14,14-trione]	–	> 6.00	–	–
Cc1cccc(C)c1-c1cc2nc(n1)NS(=O)(=O)c1cccc(c1)C1CCCCN1C(CC(C)C)CO2 (stereo not drawn) [Compound 253]	–	–	+ (+ is <300%)	–
Cc1cccc(C)c1-c1cc2nc(n1)NS(=O)(=O)c1cccc(c1)NC(=O)[C@@H]1CNCCN1c1cccc(c1)O2 [Compound 334]	–	–	+++ (+++ is >60%)	5.52 to 6.00
Cc1cccc(C)c1-c1cc2nc(n1)NS(=O)(=O)c1cccc(c1)C(=O)N1C[C@H]3C[C@@H]1[C@@H](C3)O2 [Compound 364]	–	–	++ (++ is 30-60%)	–
Cc1cccc(C)c1-c1cc2nc(n1)NS(=O)(=O)c1cccc(c1)C(=O)N1C[C@@H](CN(CC(F)(F)F)C[C@@H]1CC(C)C)O2 [Compound 98, (16R,20S)-12-(2,6-Dimethylphenyl)-20-(2-methylpropyl)-18-(2,2,2-trifluoroethyl)-15-oxa-8λ^6-thia-1,9,11,18,22-pentaazatetracyclo[14.4.1.13,7.110,14]tricosa-3(23),4,6,10(22),11,13-hexaene-2,8,8-trione]	+ (+ is <30%)	–	–	–
Cc1cccc(C)c1-c1cc2nc(n1)NS(=O)(=O)c1cccc(c1)C(=O)N1C[C@@H](CN(C3CC4(CCCCC4)C3)C[C@H]1CC(C)C)O2 [Compound 140]	+++ (+++ is >600%)	> 6.00	–	–
Cc1cccc(C)c1-c1cc2nc(n1)NS(=O)(=O)c1cccc(c1)C(=O)N1CCN(CC3CCOCC3)CC(C1)O2 (stereo not drawn) [Compound 55]	–	–	+++ (+++ is >60%)	4.52 to 5.52
Cc1cccc(C)c1-c1cc2nc(n1)NS(=O)(=O)c1cccc(c1)C(=O)N1CCN(Cc3cncn3C)C[C@@H]1CO2 [Compound 279]	–	–	+ (+ is <300%)	–
Cc1cccc(C)c1-c1cc2nc(n1)NS(=O)(=O)c1cccc(c1)C(=O)N1C[C@@H](CN(C)C[C@@H]1CC(C)C)O2 [Compound 99, (16R,20S)-12-(2,6-Dimethylphenyl)-18-methyl-20-(2-methylpropyl)-15-oxa-8λ^6-thia-1,9,11,18,22-pentaazatetracyclo[14.4.1.13,7.110,14]tricosa-3(23),4,6,10(22),11,13-hexaene-2,8,8-trione]	++ (++ is 30-60%)	> 6.00	–	–
Cc1cccc(C)c1-c1cc2nc(n1)NS(=O)(=O)c1cccc(c1)C(=O)N1CCC[C@H](C1)O2 [Compound 336]	–	–	+ (+ is <300%)	–
